Measured values as given in BindingDB's records for doi:10.1021/jm00096a016 (Kyowa Hakko Kogyo, 1992).

Assays:
[1] = Binding affinity at TXA2 receptor by measuring its ability to displace [3H]U-46619 from guinea pig platelets
[2] = Inhibition of the thromboxane A2 receptor assayed by binding to guinea pig platelets using [3H]U-46619 as radioligand
[3] = Compound was tested for its binding affinity at Thromboxane A2 receptor by measuring its ability to displace [3H]U-46619 from guinea pig platelets
[4] = target: Thromboxane-A synthase (Bos taurus); assay: Inhibitory effect against thromboxane A2 synthase binding to bovine platelets
[5] = Compound was tested for its inhibitory activity against TXA2 synthase obtained from bovine platelet microsomes

| SMILES | Ki [1] [nM] | Ki [2] [nM] | Ki [3] [nM] | IC50 [4] [nM] | IC50 [5] [nM] |
| --- | --- | --- | --- | --- | --- |
| O=C(O)c1ccc2c(c1)C(SCCNS(=O)(=O)c1ccc3ccccc3c1)c1ccccc1CO2 (stereo not given) | 14 | 14 |  |  |  |
| O=C(O)c1ccc2c(c1)C(SCCNS(=O)(=O)c1ccccc1)c1ccccc1C=C2 (stereo not given) |  | 25 | 25 |  |  |
| O=C(O)c1ccc2c(c1)C(SCCNS(=O)(=O)c1cccs1)c1ccccc1CO2 (stereo not given) |  | 5.7 | 5.7 |  |  |
| O=C(O)c1ccc2c(c1)C(SCCNS(=O)(=O)c1ccccc1)c1cc(Br)ccc1CO2 (stereo not given) |  | 6.8 | 6.8 |  |  |
| Cc1ccsc1C(=O)NCCSC1c2ccccc2COc2ccc(C(=O)O)cc21 (stereo not given) | 10 | 10 |  |  |  |
| O=C(O)c1cccc(C(SCCNS(=O)(=O)c2ccccc2)c2ccccc2)c1 (stereo not given) | 77 | 77 |  |  |  |
| O=C(O)c1ccc2c(c1)OCc1ccccc1C2SCCNS(=O)(=O)c1ccccc1 (stereo not given) |  |  |  | 370 | 370 |
| O=C(O)c1ccc2c(c1)C(SCCNS(=O)(=O)c1cccc([N+](=O)[O-])c1)c1ccccc1CO2 (stereo not given) | 14 | 14 |  |  |  |
| O=C(O)c1ccc2c(c1)C(SCCNC(=O)c1ccccc1)c1ccccc1CO2 (stereo not given) |  | 44 |  |  |  |
| O=C(NCCSC1c2ccccc2COc2ccc(C(=O)O)cc21)Nc1ccccc1 (stereo not given) |  |  |  | 830 | 830 |
| COc1cc(C(=O)NCCSC2c3ccccc3COc3ccc(C(=O)O)cc32)cc(OC)c1OC (stereo not given) | 92 | 92 |  |  |  |
| COc1ccc(S(=O)(=O)NCCSC2c3ccccc3COc3ccc(C(=O)O)cc32)cc1 (stereo not given) |  |  | 17 |  |  |
| O=C(O)c1ccc2c(c1)C(SCCNC(=S)NCc1ccccc1)c1ccccc1CO2 (stereo not given) | 6.1 | 6.1 |  |  |  |
| O=C(O)c1ccc2c(c1)C(SCCNS(=O)(=O)c1ccc(C(F)(F)F)cc1)c1ccccc1CO2 (stereo not given) |  | 20 | 20 |  |  |
| O=C(O)c1ccc2c(c1)C(SCCNC(=O)c1ccccc1O)c1ccccc1CO2 (stereo not given) |  | 5.1 | 5.1 |  |  |
| Cc1ccc(S(=O)(=O)NCCSC2c3ccccc3COc3ccc(C(=O)O)cc32)cc1 (stereo not given) |  | 27 | 27 |  |  |
| O=C(O)c1ccc2c(c1)C(SCCNS(=O)(=O)c1ccccc1)c1ccccc1CC2 (stereo not given) | 30 | 30 |  |  |  |
| O=C(O)c1ccc2c(c1)C(SCCNS(=O)(=O)c1ccccc1[N+](=O)[O-])c1ccccc1CO2 (stereo not given) |  | 15 | 15 |  |  |
| O=C(NCCSC1c2ccccc2COc2ccc(C(=O)O)cc21)OCc1ccccc1 (stereo not given) |  | 7.7 |  |  |  |
